Laboratory results as given in patent US20240254118A1, “PRMT5 INHIBITORS AND USES THEREOF” (Gilead Sciences, Inc., priority 2022, published 2024).
pEC50: −log10 of the molar value.

Experiments:
[1] = tested on: SDMA signal (PRMT5 inhibition) in HCT116 MTAP-deleted cells; test: Symmetric di-methyl arginine image-based high content screen assay (SDMA assay), HCT116 MTAP-deleted; assay type: cell-based; conditions: SDMA assay; for pEC50: Homo sapiens, HCT-116, 72 h, 3 days of treatment, cell line not given, taken as HCT116 MTAP-deleted, read-out: EC50 (SDMA assay); for EC50 selectivity (SDMA assay): taken as HCT116 WT versus MTAP-deleted
Method: Symmetric di-methyl arginine image-based high content screen assay (SDMA assay) was performed in HCT116 WT and HCT116 MTAP-deleted cell lines to measure Symmetric Di-methyl Arginine (SDMA) signal reduction after selective PRMT5 inhibition in the MTAP-deleted cells.
Briefly, the same compound plates were generated as mentioned in the previous section of Cell viability assay on Day −1.
On Day 3, the cells were fixed by adding 45 μl of 8% neutralized formalin solution to each well using EL460 liquid dispenser 5 μl cassette and the cells were incubated for 30 minutes at room temperature. The formalin solution was washed off with […] phosphate buffered saline (dPBS), the 0.1% Triton X-100 solution in dPBS was used to permeabilize the cells for 15 minutes at room temperature. The triton solution was aspirated, 50 μl of Odyssey Blocking buffer+0.05% Tween20 was added and the plate was incubated at room temperature for 30 minutes.
The blocking solution was removed, a 20 μl of SDMA antibody (Cell Signaling Technology, Cat no. 13222) diluted 1:500 in Odyssey Blocking buffer+0.05% Tween20 was added and the plate was incubated at 4° C. overnight. Next day, the primary SDME antibody solution was washed from each well three times with 0.05% Tween20 in dPBS (PBST).
A 30 μl of the secondary antibody, a Goat anti-Rabbit Alexa Fluor Plus 488 (Invitrogen, Cat no. PIA32731) was diluted 1:500 in Odyssey Blocking buffer+0.05% Tween20 and the plate was incubated for 1.5 hours in dark at room temperature. The secondary antibody solution was removed, 30 μl of 5 mg/ml DAPI solution diluted 1:2000 in dPBS was added and the plate was incubated for 30 minutes in dark at room temperature. The DAPI solution was aspirated and the wells were washed six times with dPBS.
The SDMA signal and DAPI signal per cell were counted using a Cellomics CX7 LZR instrument reading under 488 and 405 nm laser, respectively. The SDMA signal was quantified by mean average intensity per cell from Alexa Fluor Plus 488 after the cell was defined with DAPI.

[2] = tested on: HCT116 MTAP-deleted cells; test: Cell viability assay (CellTiter-Glo, 7 days), HCT116 MTAP-deleted; conditions: Homo sapiens, HCT-116, 168 h

Question: With `C[C@@H]1CN(N(Cc2ccc(C(F)(F)F)cn2)C(=O)c2ccc3nc(N)c4cnn(C)c4c3c2)C(=O)O1` (single isomer, unassigned) [Example 9] as the compound, how does the pEC50 [1] read?
Answer: > 9.00

Question: And the “EC50 selectivity (SDMA assay)” value [1]?
Answer: 180

Question: What about the CC50 [2] of the same compound?
Answer: < 100 nM

Question: Which results are given for `CC(=O)N(C)N(Cc1nc2cc(C(F)(F)F)ccc2s1)C(=O)c1ccc2nc(N)c3cnn(C)c3c2c1` [Example 1]?
Answer: pEC50 [1]: > 9.00; EC50 selectivity (SDMA assay) [1]: 122; CC50 [2]: < 100 nM

Question: Which results are given for `Cn1ncc2c(N)nc3ccc(C(=O)N(Cc4ccc(C(F)(F)F)cc4F)N4CCCCC4=O)cc3c21` [Example 2, 4-amino-N-(2-fluoro-4-(trifluoromethyl)benzyl)-1-methyl-N-(2-oxopiperidin-1-yl)-1H-pyrazolo[4,3-c]quinoline-8-carboxamide]?
Answer: pEC50 [1]: > 9.00; EC50 selectivity (SDMA assay) [1]: 25; CC50 [2]: < 100 nM

Question: With `Cn1ncc2c(N)nc3ccc(C(=O)N(Cc4ccc(C(F)(F)F)cc4)N4CCCOC4=O)cc3c21` [Example 3, 4-amino-1-methyl-N-(2-oxo-1,3-oxazinan-3-yl)-N-(4-(trifluoromethyl)benzyl)-1H-pyrazolo[4,3-c]quinoline-8-carboxamide] as the compound, how does the pEC50 [1] read?
Answer: > 9.00

Question: What about the “EC50 selectivity (SDMA assay)” value [1] of the same compound?
Answer: 123

Question: What about the CC50 [2] of the same compound?
Answer: < 100 nM

Question: Which results are given for `Cn1ncc2c(N)nc3ccc(C(=O)N(Cc4ccc(C(F)(F)F)cn4)N4CCN(CC(F)(F)F)C4=O)cc3c21` [Example 4, 4-amino-1-methyl-N-(2-oxo-3-(2,2,2-trifluoroethyl)imidazolidin-1-yl)-N-((5-(trifluoromethyl)pyridin-2-yl)methyl)-1H-pyrazolo [4,3-c]quinoline-8-carboxamide]?
Answer: pEC50 [1]: 8.30 to 9.00; EC50 selectivity (SDMA assay) [1]: 327; CC50 [2]: < 100 nM

Question: With `Cn1ncc2c(N)nc3ccc(C(=O)N(Cc4ccc(OC(F)F)cc4)N4CCCOC4=O)cc3c21` [Example 5, 4-amino-N-(4-(difluoromethoxy)benzyl)-1-methyl-N-(2-oxo-1,3-oxazinan-3-yl)-1H-pyrazolo[4,3-c]quinoline-8-carboxamide] as the compound, how does the pEC50 [1] read?
Answer: > 9.00

Question: What about the “EC50 selectivity (SDMA assay)” value [1] of the same compound?
Answer: 266

Question: What about the CC50 [2] of the same compound?
Answer: < 100 nM

Question: How did the pEC50 [1] turn out when `CC(=O)N(c1ccccc1)N(Cc1ccc(C(F)(F)F)cn1)C(=O)c1ccc2nc(N)c3cnn(C)c3c2c1` [Example 6, N′-acetyl-4-amino-1-methyl-N′-phenyl-N-((5-(trifluoromethyl)pyridin-2-yl)methyl)-1H-pyrazolo[4,3-c]quinoline-8-carbohydrazide] was run?
Answer: > 9.00

Question: What about the “EC50 selectivity (SDMA assay)” value [1] of the same compound?
Answer: 286

Question: What about the CC50 [2] of the same compound?
Answer: < 100 nM

Question: `CN1CCN(N(Cc2ccc(C(F)(F)F)cc2F)C(=O)c2ccc3nc(N)c4cnn(C)c4c3c2)C1=O` [Example 7, 4-amino-N-(2-fluoro-4-(trifluoromethyl)benzyl)-1-methyl-N-(3-methyl-2-oxoimidazolidin-1-yl)-1H-pyrazolo[4,3-c]quinoline-8-carboxamide] was tested. Which pEC50 [1] did it give?
Answer: > 9.00

Question: And the “EC50 selectivity (SDMA assay)” value [1]?
Answer: 62

Question: And the CC50 [2]?
Answer: < 100 nM

Question: What does the source list for `Cn1ncc2c(N)nc3ccc(C(=O)N(Cc4ccc(C(F)(F)F)cn4)N4CCCOC4=O)cc3c21` [Example 10, 4-amino-1-methyl-N-(2-oxo-1,3-oxazinan-3-yl)-N-((5-(trifluoromethyl)pyridin-2-yl)methyl)-1H-pyrazolo[4,3-c]quinoline-8-carboxamide]?
Answer: pEC50 [1]: > 9.00; EC50 selectivity (SDMA assay) [1]: 180; CC50 [2]: < 100 nM

Question: How did the pEC50 [1] turn out when `Cn1ncc2c(N)nc3ccc(C(=O)N(Cc4ccc(C(F)(F)F)cn4)N4C(=O)[C@H]5CC[C@@H]4C5)cc3c21` [Example 11, 4-amino-1-methyl-N-[(1R,4S)-3-oxo-2-azabicyclo[2.2.1]heptan-2-yl]-N-[[5-(trifluoromethyl)-2-pyridyl]methyl]pyrazolo[4,3-c]quinoline-8-carboxamide] was run?
Answer: > 9.00

Question: What about the “EC50 selectivity (SDMA assay)” value [1] of the same compound?
Answer: 245

Question: And the CC50 [2]?
Answer: < 100 nM

Question: `Cn1ncc2c(N)nc3ccc(C(=O)N(Cc4ccc(C(F)(F)F)cn4)N4CC(F)(F)CCC4=O)cc3c21` [Example 13, 4-amino-N-(5,5-difluoro-2-oxo-1-piperidyl)-1-methyl-N-[[5-(trifluoromethyl)-2-pyridyl]methyl]pyrazolo[4,3-c]quinoline-8-carboxamide] was tested. Which pEC50 [1] did it give?
Answer: > 9.00

Question: And the “EC50 selectivity (SDMA assay)” value [1]?
Answer: 128

Question: And the CC50 [2]?
Answer: < 100 nM
